Data on 1 compound can be found in paper PMC13327620, “A Deep‐Red‐Absorbing Osmium(II) Complex as a Photosensitizer for Photodynamic Therapy Inducing Immunogenic Cell Death” (Angewandte Chemie (International Ed. in English), 2026).

Each structure is given as a SMILES string.

Test [1] deals with CT26‐luc cells. The test is described as follows: In vivo vaccination and rechallenge, CT26-luc model. On the set-up: species or system BALB/c mice. Here is the method: The ability to stimulate ICD in vivo was evaluated using a CT26‐luc vaccination and rechallenge model, following the gold‐standard method (Figure 5A). The mice were randomly assigned to groups and injected subcutaneously on the left flank with PBS solution, CT26‐luc cells pre‐treated with either 600 µM Cisplatin in the dark, 6.5 µM Ce6, or 1.8 µM Os2 upon 740 nm LED light irradiation (60 min, 12.6 J cm^−2). After 7 days, all the mice were rechallenged by subcutaneous injection of untreated live CT26‐luc cells on the right flank. […] However, by day 15, tumors in the PBS‐treated (control) group grew rapidly, reaching an average tumor volume of 717 ± 190 mm^3.
The BALB/c female mice were randomly divided into 4 groups with each group containing 5 mice, which were named as Control group, Cisplatin group, Ce6 group and Os2 group. CT26-luc cells wer e treat ed in vitro with 600 µM Cisplatin in the dark, 6.5 µM Ce6 or 1.8 µM Os2 upon 740 nm LED light irradiation (60 min, 12.6 J cm-2) following the methods described above. Subsequently, treated CT26-luc cells (3×10^5 cells in 100 µ L sterile PBS) or 100 µ L sterile PB S were injected subcutaneously into the left flank of each mouse. One week later, mice were r echalleng ed by injection with untreated CT26- luc cells (1×10^6 cells in 100 µL sterile PBS). The mice were monitored by an in vivo imaging system (Biospace Lab, Photon Imager Optima) and the tumor volume was calculated with the following equation: tumor volume = width 2 × length × […]
In vivo vaccination study on MCA205 cells
The C57BL/6 mice were randomly divided into 5 groups with each group containing 10 mice, whi ch w ere nam ed as Control group, Cisplatin group, Oxaliplatin group, Ce6 group and Os2 group. M CA205 cells were treated in vitro with 500 µM Cisplatin o r 1400 µM Oxaliplatin in the dark, 5.5 µM Ce6 or 3 µM Os2 upon 740 nm LED light irradiation (60 min, 12.6 J cm-2) following the methods described above. […] The tumor volume was calculated with the following equation: tumor volume =

In test [2] the test system is ATP release. The test is described as follows: Detection of extracellular ATP in CT26 cells. It is filed as cell-based, mouse. The settings on record: CT26, irradiated at 740 nm. Here is the method:
We finally measured ATP release, another important event in ICD, using a bioluminescence detection kit (Figure 3E).
Scientific, Catalog no.15 5411) at a d ensity of 8,00 0 cells p er well and cultu red fo r 24 h at 37 °C with 5 % CO2. T he cells wer e then treated with a solution of the compounds at a concentration corresponding to the IC50 for 4 h. After refreshing the medium, cells were subjected to irradiation and incubated for an additional 12 h. Subsequently, the cells were fix ed with 4% paraformaldehyde and immunostained with Anti- Calreticulin antibody (Abcam, Catalog no. ab2907) diluted 1/1000 at 4 °C overnight. Cells were then washed three times with PBS, treated with Goat Anti- Rabbit IgG H&L (Alexa […]
temperature in the dark, washed in PBS and treat ed with 10 µg/mL Hoechst for 15 min.
After a final wash, cells were analyzed by confocal microscopy as det ailed above. […]
incubated for 24 h. Cells were then treat ed with the determined IC50 of complexes and irradiated or kept in the dark. Supernatants were collected 12 h post-t reatm ent, and the extracellular ATP content was measured with Adenosine 5′ -triphosphate (ATP) Bioluminescent Assay Kit (Sigma-Aldrich) according tomanufacturer ’s ins truction. […]
556419) and PI (BD Biosciences, Catalog no.51- 66211E). CT26- luc cells were analyzed by flow cytometry (Beckm an Coulter Life Sciences, CytoFLEX LX Flow Cytometer). […]

On to `C=Cc1c(C)c2cc3nc(c(CC(=O)O)c4[nH]c(cc5nc(cc1[nH]2)C(C)=C5CC)c(C)c4C(=O)O)[C@@H](CCC(=O)O)[C@@H]3C` [Ce6, chlorin e6], for which, in test [1] (by day 40, n = 5 per group), the “Mice with tumors completely ablated” value is “one mouse”. Besides, the “Tumor volume, times smaller than control group” value in test [1] (day 15 after rechallenge, vaccination with CT26‐luc cells pre-treated with 6.5 µM Ce6 or 1.8 µM Os2 + 740 nm) was 1.7. Further, the Survival entry in test [1] (up to 40 days after rechallenge, compared to the other groups) was “prolonged survival periods”. In test [2], the ATP release result is recorded as “significantly enhanced ATP release”.
